Laboratory results from the supplement of paper PMC10307832.

Legend:
Test in all cases: relative viability (nuclei count vs DMSO), 5 days (fraction); higher = more cells survive
[1] = compound: O=S(=O)(c1ccccc1)N(CC(F)(F)F)c1ccc(C(O)(C(F)(F)F)C(F)(F)F)cc1 + Cc1nc(NC(=O)N2CCC[C@H]2C(N)=O)sc1-c1ccnc(C(C)(C)C(F)(F)F)c1 [Alpelisib] (partner 2 µM)
Outline: (§1)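 Lung cancer cell lines were seeded in 1536-well plates and dosed by pin tool the next day, with either a single drug or a fixed anchor-drug dose combined with five library-drug doses (not always all listed) spaced in √10 steps. Five days later, one step fixed the cells and stained their nuclei (final 0.05% Triton X-100, 1% formaldehyde, 1 ug/ml Hoechst), and nuclei were counted on 4× images. Relative viability is the nuclei count in treated wells divided by the count in vehicle wells, and each value is the median of duplicate plates.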

RO-3306 + Phenformin = compound: C1=CC2=C(C=CC(=C2)C=C3C(=O)NC(=NCC4=CC=CS4)S3)N=C1 [RO-3306] + N=C(N)NC(=N)NCCc1ccccc1 [Phenformin] (partner 250 µM)
Outline: as §1

RO-3306 + Trametinib = compound: C1=CC2=C(C=CC(=C2)C=C3C(=O)NC(=NCC4=CC=CS4)S3)N=C1 [RO-3306] + CC(=O)Nc1cccc(-n2c(=O)n(C3CC3)c(=O)c3c(Nc4ccc(I)cc4F)n(C)c(=O)c(C)c32)c1 [Trametinib] (partner 0.02 µM)
Outline: as §1

Cell Line | relative viability ([1]; first compound 0.8 µM) | relative viability ([1]; first compound 2.53 µM) | relative viability ([1]; first compound 8 µM) | relative viability (RO-3306 + Phenformin; first compound 0.01 µM) | relative viability (RO-3306 + Phenformin; first compound 0.03162 µM) | relative viability (RO-3306 + Phenformin; first compound 0.1 µM) | relative viability (RO-3306 + Phenformin; first compound 0.3162 µM) | relative viability (RO-3306 + Phenformin; first compound 1 µM) | relative viability (RO-3306 + Trametinib; first compound 0.01 µM) | relative viability (RO-3306 + Trametinib; first compound 0.1 µM) | relative viability (RO-3306 + Trametinib; first compound 0.3162 µM) | relative viability (RO-3306 + Trametinib; first compound 1 µM) | relative viability (RO-3306 + Trametinib; first compound 0.03162 µM)
NCI-H23 | 0.905 | 0.818 | 0.618 | 0.734 | 0.762 | 0.737 | 0.745 | 0.668 | 0.344 | 0.352 | 0.388 | 0.375 | –
NCI-H2405 | 0.877 | 0.795 | 0.868 | 0.403 | 0.539 | 0.356 | 0.368 | 0.554 | 0.637 | 0.636 | 0.63 | 0.613 | 0.557
HARA | 0.647 | 0.721 | 0.539 | 0.471 | 0.357 | 0.504 | 0.429 | 0.466 | 0.448 | 0.519 | 0.694 | 0.741 | –
HCC-44 | 0.913 | 0.946 | 0.927 | 0.226 | 0.21 | 0.163 | 0.185 | 0.196 | 1.06 | 1.15 | 1.13 | 1.08 | 0.933
CAL-12T | 1.52 | 1.13 | 1.02 | 0.56 | 0.445 | 0.511 | 0.597 | 0.674 | 0.374 | 0.309 | 0.245 | 0.324 | 0.302
NCI-H838 | 1.12 | 0.923 | 1.07 | 0.756 | 0.442 | 0.521 | 0.653 | 0.538 | 0.596 | 0.54 | 0.557 | 0.45 | 0.487
LK-2 | 1.08 | 1.16 | 1.05 | 0.445 | – | 0.312 | 0.499 | 0.344 | 1.01 | 0.692 | 0.872 | 0.872 | 0.659
NCI-H358 | 0.647 | 0.729 | 0.695 | 0.363 | 0.265 | 0.282 | 0.289 | 0.239 | 0.131 | 0.127 | 0.135 | 0.12 | 0.131
SW 1573 | 0.889 | 0.697 | 0.757 | 0.405 | – | 0.363 | 0.341 | 0.351 | 0.636 | 0.539 | 0.604 | 0.573 | 0.428
LCLC-103H | 1.11 | 0.999 | 1.03 | 0.36 | 0.27 | 0.298 | 0.342 | 0.328 | 0.728 | 0.739 | 0.634 | 0.689 | 0.665
HCC-827 | 1.05 | 1.05 | 0.842 | 0.406 | 0.308 | 0.407 | 0.381 | 0.408 | 0.544 | 0.516 | 0.571 | 0.462 | 0.476
NCI-H1666 | 0.776 | 0.868 | 0.892 | 0.561 | 0.55 | 0.515 | 0.54 | 0.552 | 0.792 | 0.835 | 0.765 | 0.783 | 0.665
NCI-H460 | 0.544 | 0.512 | 0.512 | 0.635 | 0.365 | 0.496 | 0.555 | 0.544 | 0.162 | 0.139 | 0.223 | 0.128 | 0.115
NCI-H2087 | 1.16 | 1.11 | 0.972 | 0.526 | 0.332 | 0.423 | 0.489 | 0.372 | 0.176 | 0.188 | 0.234 | 0.202 | 0.193
NCI-H2085 | 0.982 | 0.885 | 0.969 | 0.688 | 0.604 | 0.655 | 0.683 | 0.654 | 0.509 | 0.527 | 0.613 | 0.595 | 0.632
NCI-H1299 | 1.09 | 1.08 | 1.03 | – | – | – | – | – | – | – | – | – | –
ChaGo-K-1 | – | – | – | 0.579 | 0.404 | 0.447 | 0.443 | 0.337 | 0.954 | 0.859 | 0.856 | 0.559 | 0.829
A-427 | 1.11 | 1.02 | 1.02 | 0.339 | 0.241 | 0.312 | 0.295 | 0.243 | 0.782 | 0.679 | 0.758 | 0.669 | 0.802
NCI-H2170 | 0.961 | 0.804 | 0.798 | 0.425 | 0.422 | 0.396 | 0.383 | 0.435 | 1.18 | 0.886 | 0.96 | 0.958 | 0.792
NCI-H441 | 0.815 | 0.481 | 0.64 | 0.689 | 0.474 | 0.783 | 0.864 | 0.788 | 0.451 | 0.368 | 0.439 | 0.428 | 0.341
NCI-H2347 | 1.25 | 1.2 | 1.04 | 0.347 | 0.374 | 0.384 | 0.485 | 0.384 | 0.283 | 0.262 | 0.264 | 0.274 | 0.271
NCI-H2009 | 1.09 | 1.02 | 0.964 | 0.52 | 0.455 | 0.49 | 0.483 | 0.494 | 0.283 | 0.247 | 0.273 | 0.254 | 0.272
NCI-H1915 | 1.09 | 1.03 | 1.02 | 0.405 | 0.31 | 0.358 | 0.348 | 0.377 | 0.319 | 0.297 | 0.32 | 0.292 | 0.276
EMC-BAC-2 | 0.874 | 0.754 | 0.757 | 0.516 | 0.401 | 0.536 | 0.497 | 0.508 | 0.917 | 0.902 | 0.889 | 0.84 | 0.83
Calu-6 | 0.82 | 0.77 | 0.885 | – | – | – | – | – | – | – | – | – | –
NCI-H2126 | 0.878 | 0.768 | 0.773 | 0.504 | 0.544 | 0.513 | 0.508 | 0.513 | 0.555 | 0.577 | 0.584 | 0.476 | 0.488
